What follows are compounds tested against human mGluR2 (Homo sapiens (Human), UniProt Q14416) (assay: [35S]GTPγS binding assay (Affinity to mGluR2)). Conditions: cell membrane fraction of HEK293 cells stably expressing human mGluR2; glutamic acid 10 μM.
Assay type: biochemical
Procedure: (Preparation of Cell Membrane Fraction of HEK293 Cells Stably Expressing Human Metabotropic Glutamate Receptor 2 (mGluR2))
HEK293 cells stably expressing human mGluR2 and human glutamate transporter SLC1A3 were cultured in a Dulbecco's modified Eagle's medium with 10% fetal bovine serum (50 units/mL of penicillin, 50 μg/mL of streptomycin, 60 μg/mL of geneticin, 400 μg/mL of hygromycin B and 2 mM of glutamine) at 37° C. under 5% CO2. Confluent cell cultures were washed twice with PBS(−), and then scraped off with a cell scraper, and subjected to centrifugal separation at 4° C. and 1500 rpm for 5 minutes for collecting cells. The centrifuged sediment (cell pellet) was homogenized in a 20 mM HEPES buffer containing 10 mM EDTA (pH 7.4) by using sonicator and centrifuged at 4° C. and 1500×g for 30 minutes. The supernatant (soluble fraction) was subjected to the centrifugal separation at 4° C. and 40,000×g for 30 minutes, and thus, insoluble fraction was obtained. After additional centrifugally washing the obtained fraction with 20 mM HEPES buffer containing 10 mM EDTA (pH 7.4), the pellet was centrifugally suspended with a 20 mM HEPES buffer containing 0.1 mM EDTA, and the cell membrane fraction was obtained by the centrifugal separation at 4° C. and 40,000×g for 30 minutes. The thus obtained cell membrane fraction was suspended in a 20 mM HEPES buffer containing 0.1 mM EDTA in a protein concentration of 3 mg/mL, which was stored at −80° C.
([^35S]GTPγS Binding Assay)
The frozen cell membrane fraction prepared as described above was thawed before use, and the resultant was diluted with a buffer for a binding assay (final concentrations: 20 mM HEPES, 100 mM NaCl, 1 mM MgCl2, 3 μM GDP, 300 μg/mL saponin, 0.1% BSA). The compound of each example was added to a cell membrane fraction containing 1.8 to 3 μg/assay of membrane protein on a plate, followed by incubation at room temperature for 30 minutes. Thereafter, with glutamic acid (in a final concentration of 10 μM) added thereto, incubation was performed at room temperature for 15 minutes, and thereafter, [^35S]GTPγS (in a final concentration of 0.8 kBq) and 588 μg WGA-SPA beads were added thereto, followed by incubation at room temperature for 1 hour. After the incubation, the plate was subjected to the centrifugal separation at 2,500 rpm and room temperature, and then, membrane cell binding radioactivity was measured with a top count.
A [^35S]GTPγS binding amount obtained by performing the above-described reaction in the absence of glutamic acid was defined as nonspecific binding, and a difference from a [^35S]GTPγS binding amount obtained in the presence of glutamic acid was defined as specific binding. On the basis of ratios of inhibiting the specific binding at various concentrations of the compounds of the respective examples, inhibition curves were obtained. Concentrations of the compounds of the respective examples at which the specific [^35S]GTPγS binding amount was suppressed by 50% (IC50 values) were calculated on the basis of the inhibition curves and shown in Tables 8 and 9.

human mGluR2, sequence (Q14416 19-872): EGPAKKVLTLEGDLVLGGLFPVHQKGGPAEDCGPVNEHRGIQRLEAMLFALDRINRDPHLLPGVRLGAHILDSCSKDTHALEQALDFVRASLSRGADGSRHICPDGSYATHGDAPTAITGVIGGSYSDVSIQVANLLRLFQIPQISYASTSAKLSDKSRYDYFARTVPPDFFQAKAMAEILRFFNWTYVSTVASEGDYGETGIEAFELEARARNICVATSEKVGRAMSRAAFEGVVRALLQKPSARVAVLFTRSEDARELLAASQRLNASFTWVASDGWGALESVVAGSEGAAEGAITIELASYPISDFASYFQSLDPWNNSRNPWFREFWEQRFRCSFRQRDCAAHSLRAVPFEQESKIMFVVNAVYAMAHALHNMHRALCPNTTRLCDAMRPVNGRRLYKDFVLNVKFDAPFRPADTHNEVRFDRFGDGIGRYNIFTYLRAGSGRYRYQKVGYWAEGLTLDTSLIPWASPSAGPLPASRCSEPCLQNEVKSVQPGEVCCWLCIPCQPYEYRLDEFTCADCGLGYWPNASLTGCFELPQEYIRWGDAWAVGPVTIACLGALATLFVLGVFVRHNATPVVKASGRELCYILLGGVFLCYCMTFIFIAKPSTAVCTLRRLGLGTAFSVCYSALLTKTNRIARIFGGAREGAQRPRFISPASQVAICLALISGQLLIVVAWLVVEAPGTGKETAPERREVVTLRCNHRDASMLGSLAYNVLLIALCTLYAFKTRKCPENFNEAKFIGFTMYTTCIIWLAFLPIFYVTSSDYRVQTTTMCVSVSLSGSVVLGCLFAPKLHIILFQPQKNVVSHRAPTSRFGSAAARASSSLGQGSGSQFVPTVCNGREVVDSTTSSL

Compound	IC50 [nM]
COc1ccc(-c2nc(-c3cc(C)nc(C)c3)c3n2C[C@@H](C)OCC3)cc1Cl [Example 33, (R)-3-(3-chloro-4-methoxyphenyl)-1-(2,6-dimethylpyridin-4-yl)-6-methyl-5,6,8,9-tetrahydroimidazo[1,5-d][1,4]oxazepine]	5
Cc1cc(-c2nc(-c3ccc(Cl)c(C(F)(F)F)c3)n3c2CCO[C@H](C)C3)cc(C)n1 [Example 140]	5.7
Cc1cc(-c2nc(-c3ccc(Cl)c(Cl)c3)n3c2CCO[C@H](CF)C3)cc(C)n1 [Example 76]	20.9
COc1cc(-c2nc(-c3ccnc(C)c3)c3n2C[C@@H](CF)OCC3)ccc1Cl [Example 26, (S)-3-(4-chloro-3-methoxyphenyl)-6-fluoromethyl-1-(2-methylpyridin-4-yl)-5,6,8,9-tetrahydroimidazo[1,5-d][1,4]oxazepine]	13.5
Cc1cc(-c2nc(-c3ccc(F)c(OCC(F)(F)F)c3)n3c2CCOCC3)cc(C)n1 [Example 93]	28.7
Cc1cc(-c2nc(-c3ccc(Cl)c(Cl)c3)n3c2CCO[C@H](C)C3)cc(C)n1 [Example 65]	14
Cc1cc(-c2nc(-c3ccc(OC(F)(F)F)c(CF)c3)n3c2CCO[C@H](C)C3)ccn1 [Example 39, (R)-3-(3-(fluoromethyl)-4-(trifluoromethoxy)phenyl)-6-methyl-1-(2-methylpyridin-4-yl)-5,6,8,9-tetrahydroimidazo[1,5-d][1,4]oxazepine]	2.5
Cc1cc(-c2nc(-c3ccc(Cl)c(OCC(F)(F)F)c3)n3c2CCOCC3)cc(C)n1 [Example 3, 3-(4-chloro-3-(2,2,2-trifluoroethoxy)phenyl)-1-(2,6-dimethylpyridin-4-yl)-5,6,8,9-tetrahydroimidazo[1,5-d][1,4]oxazepine]	13.9
Cc1cc(-c2nc(-c3ccc(Cl)c(Cl)c3)n3c2CCO[C@H](C)C3)ccn1 [Example 66]	12.6
Cc1cc(-c2nc(-c3ccc(Cl)c(OC(F)(F)F)c3)n3c2CCOCC3)cc(C)n1 [Example 48]	40
COc1cc(-c2nc(-c3cc(C)nc(C)c3)c3n2C[C@@H](CF)OCC3)ccc1OC(F)(F)F [Example 16, (S)-1-(2,6-dimethylpyridin-4-yl)-6-(fluoromethyl)-3-(3-methoxy-4-(trifluoromethoxy)phenyl)-5,6,8,9-tetrahydroimidazo[1,5-d][1,4]oxazepine]	2.7
CCOc1cc(-c2nc(-c3cc(C)nc(C)c3)c3n2C[C@@H](C)OCC3)ccc1C(F)(F)F [Example 82]	1.1
COc1cc(-c2nc(-c3cc(C)nc(C)c3)c3n2C[C@@H](C)OCC3)ccc1C(C)(F)F [Example 23, (R)-3-(4-(1,1-difluoroethyl)-3-methoxyphenyl)-1-(2,6-dimethylpyridin-4-yl)-6-methyl-5,6,8,9-tetrahydroimidazo[1,5-d][1,4]oxazepine]	19.4
Cc1cc(-c2nc(-c3ccc(Cl)c(C)c3)n3c2CCO[C@H](CF)C3)ccn1 [Example 74]	35.3
COc1ccc(-c2nc(-c3cc(C)nc(C)c3)c3n2C[C@@H](C)OCC3)cc1C [Example 18, (R)-1-(2,6-dimethylpyridin-4-yl)-3-(4-methoxy-3-methylphenyl)-6-methyl-5,6,8,9-tetrahydroimidazo[1,5-d][1,4]oxazepine]	12.3
Cc1cc(-c2nc(-c3ccc(Cl)c(C)c3)n3c2CCO[C@H](C)C3)ccn1 [Example 54]	19.4
COc1cc(-c2nc(-c3cc(C)nc(C)c3)c3n2C[C@@H](CF)OCC3)ccc1C(F)(F)F [Example 29, (S)-1-(2,6-dimethylpyridin-4-yl)-6-(fluoromethyl)-3-(3-methoxy-4-(trifluoromethyl)phenyl)-5,6,8,9-tetrahydroimidazo[1,5-d][1,4]oxazepine]	3.8
Cc1cc(-c2nc(-c3ccc(OC(C)C)c(Cl)c3)n3c2CCO[C@H](C)C3)cc(C)n1 [Example 35, (R)-3-(3-chloro-4-isopropoxyphenyl)-1-(2,6-dimethylpyridin-4-yl)-6-methyl-5,6,8,9-tetrahydroimidazo[1,5-d][1,4]oxazepine]	2.7
Cc1cc(-c2nc(-c3ccc(Cl)c(C)c3)n3c2CCOCC3)cc(C)n1 [Example 110]	64.2
Cc1cc(-c2nc(-c3ccc(OC(F)(F)F)cc3)n3c2CCO[C@H](C)C3)cc(CF)n1 [Example 86]	4.4
Cc1cc(-c2nc(-c3ccc(OC(F)(F)F)c(C)c3)n3c2CCOCC3)ccn1 [Example 118]	10.9
Cc1cc(-c2nc(-c3ccc(OC4CC4)c(Cl)c3)n3c2CCOCC3)cc(C)n1 [Example 135]	36.9
COc1cc(-c2nc(-c3cc(C)nc(C)c3)c3n2CCOCC3)ccc1C(F)F [Example 121]	40.9
COc1cc(-c2nc(-c3ccnc(C)c3)c3n2C[C@@H](C)OCC3)ccc1Cl [Example 114]	19.2
Cc1cc(-c2nc(-c3ccc(OC(F)F)c(Cl)c3)n3c2CCO[C@H](C)C3)ccn1 [Example 21, (R)-3-(3-chloro-4-(difluoromethoxy)phenyl)-6-methyl-1-(2-methylpyridin-4-yl)-5,6,8,9-tetrahydroimidazo[1,5-d][1,4]oxazepine]	7.5
COc1cc(-c2nc(-c3cc(C)nc(CF)c3)c3n2C[C@@H](C)OCC3)ccc1OC(F)(F)F [Example 30, (R)-1-(2-(fluoromethyl)-6-methylpyridin-4-yl)-3-(3-methoxy-4-(trifluoromethoxy)phenyl)-6-methyl-5,6,8,9-tetrahydroimidazo[1,5-d][1,4]oxazepine]	5.2

Same assay, conditions: cell membrane fraction of HEK293 cells stably expressing human mGluR2; glutamic acid 10 μM; inhibition of specific [35S]GTPγS binding

Compound	IC50 [nM]
COc1cc(-c2nc(-c3ccnc(C)c3)c3n2C[C@@H](C)OCC3)ccc1C(C)(F)F [Example 240]	46.9
CCOc1ccc(-c2nc(-c3cc(C)nc(C)c3)c3n2C[C@@H](C)OCC3)cc1C [Example 241]	2.9
Cc1cc(-c2nc(-c3ccc(OC4CC4)c(C)c3)n3c2CCO[C@H](C)C3)cc(CF)n1 [Example 208]	4.7
Cc1cc(-c2nc(-c3ccc(C)c(OCC4CC4)c3)n3c2CCO[C@H](C)C3)cc(C)n1 [Example 226]	10.5
Cc1cc(-c2nc(-c3ccc(OC(F)(F)F)c(CO)c3)n3c2CCO[C@H](C)C3)ccn1 [Example 230]	19.8
Cc1cc(-c2nc(-c3ccc(F)c(C(F)(F)F)c3)n3c2CCO[C@H](CF)C3)cc(C)n1 [Example 173]	19.2
COc1cc(-c2nc(-c3cc(C)nc(CO)c3)c3n2C[C@@H](CF)OCC3)ccc1C(F)(F)F [Example 156]	7.3
Cc1cc(-c2nc(-c3ccc(OC(F)(F)F)c(Cl)c3)n3c2CCO[C@H](C)C3)ccn1 [Example 153]	3
Cc1cc(-c2nc(-c3ccc(OC(F)F)c(C)c3)n3c2CCO[C@H](CF)C3)cc(C(F)F)n1 [Example 188]	20.8
Cc1cc(-c2nc(-c3ccc(Cl)c(CF)c3)n3c2CCO[C@H](C)C3)cc(C)n1 [Example 238]	36.8
Cc1cc(-c2nc(-c3ccc(OC4CC4)c(Cl)c3)n3c2CCO[C@H](C)C3)cc(CF)n1 [Example 205]	5.3
COc1cc(-c2nc(-c3cc(C)nc(C(F)F)c3)c3n2C[C@@H](CF)OCC3)ccc1Cl [Example 176]	38.8
CCOc1cc(-c2nc(-c3cc(C)nc(C)c3)c3n2C[C@@H](C)OCC3)ccc1CC [Example 220]	5.9
Cc1cc(-c2nc(-c3ccc(OC(F)(F)F)c(C#N)c3)n3c2CCO[C@H](C)C3)cc(CF)n1 [Example 203]	4.9
Cc1cc(-c2nc(-c3ccc(C(F)(F)F)c(C)c3)n3c2CCO[C@H](CF)C3)ccn1 [Example 187]	19.3
Cc1cc(-c2nc(-c3ccc(OC(F)(F)F)c(C)c3)n3c2CCO[C@H](CF)C3)cc(C)n1 [Example 161]	4
CCOc1cc(-c2nc(-c3cc(C)nc(C)c3)c3n2CCOCC3)ccc1CC [Example 213]	10.7
Cc1cc(-c2nc(-c3ccc(OC(F)F)c(CF)c3)n3c2CCO[C@H](C)C3)ccn1 [Example 236]	2.9
CCOc1cc(-c2nc(-c3ccnc(C)c3)c3n2C[C@@H](C)OCC3)ccc1C [Example 223]	16.7
